According to patent publication US8609836B2, “4-aryl-2-anilino-pyrimidines” (Janssen Pharmaceutica NV, priority 2008, dated 2013):

Columns and labels:
AuroraB (h) = AuroraB (h) (Homo sapiens, UniProt Q96GD4); experiment: Aurora-B human kinase inhibition, SPA; format: biochemical; settings: read-out: AuroraB pIC50 (converted)
Procedure, shortened: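 AuroraB (0.5 μg/ml) phosphorylates 3 μM biotin-peptide using 0.5 μM ATP spiked with 33P-ATP in Hepes pH 7.5 with 3 mM MgCl2 and MnCl2, for 60 min at room temperature. EDTA stop solution carries streptavidin scintillant beads, and the captured radiolabel is imaged.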

CDK1/CyclinB (h) = CDK1/CyclinB (h) (Homo sapiens, UniProt P06493); experiment: CDK1/CyclinB human kinase inhibition, Invitrogen's FRET assay (Z'lyte); format: biochemical; settings: read-out: CDK1 pIC50 (converted)
CDK1/CyclinB (h), sequence (P06493 whole entry): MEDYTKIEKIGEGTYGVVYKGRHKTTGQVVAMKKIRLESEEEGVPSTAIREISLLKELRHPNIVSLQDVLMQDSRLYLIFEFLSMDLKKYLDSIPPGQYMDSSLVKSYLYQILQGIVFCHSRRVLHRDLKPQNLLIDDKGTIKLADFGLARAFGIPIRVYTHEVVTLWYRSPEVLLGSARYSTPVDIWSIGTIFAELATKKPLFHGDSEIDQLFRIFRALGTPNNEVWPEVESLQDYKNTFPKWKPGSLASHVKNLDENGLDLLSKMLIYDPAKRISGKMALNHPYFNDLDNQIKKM
CDK1/CyclinB (h), sequence (P14635 whole entry partner): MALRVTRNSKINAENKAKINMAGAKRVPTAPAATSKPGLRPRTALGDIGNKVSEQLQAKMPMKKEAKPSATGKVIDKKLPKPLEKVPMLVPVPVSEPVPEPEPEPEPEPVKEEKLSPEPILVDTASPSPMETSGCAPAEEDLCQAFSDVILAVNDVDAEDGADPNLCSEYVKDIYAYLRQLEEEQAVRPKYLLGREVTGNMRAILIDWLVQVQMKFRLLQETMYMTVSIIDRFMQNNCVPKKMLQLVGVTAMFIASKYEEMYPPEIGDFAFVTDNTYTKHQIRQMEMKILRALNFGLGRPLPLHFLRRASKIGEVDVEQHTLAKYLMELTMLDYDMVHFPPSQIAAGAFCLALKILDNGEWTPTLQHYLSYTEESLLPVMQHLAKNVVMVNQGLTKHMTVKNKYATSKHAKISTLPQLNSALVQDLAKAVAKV
Procedure, shortened: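 Read-out is the 460 nm/538 nm emission ratio (390 nm excitation) after a 60 min protease development step. Before that, 10 μM ATP and 2 μM Z'lyte Ser/Thr peptide 12 react 60 min at room temperature with 0.2 μg/ml human CDK1/CyclinB in Hepes pH 7.5 containing MgCl2, EGTA and Brij-35.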

CDK4/CyclinD1 (h) = CDK4/CyclinD1 (h) (Homo sapiens, UniProt P11802); experiment: CDK4/CyclinD1 human kinase inhibition, SPA with GST-pRb substrate; format: biochemical; settings: read-out: CDK4 pIC50 (converted)
CDK4/CyclinD1 (h), sequence (P11802 whole entry): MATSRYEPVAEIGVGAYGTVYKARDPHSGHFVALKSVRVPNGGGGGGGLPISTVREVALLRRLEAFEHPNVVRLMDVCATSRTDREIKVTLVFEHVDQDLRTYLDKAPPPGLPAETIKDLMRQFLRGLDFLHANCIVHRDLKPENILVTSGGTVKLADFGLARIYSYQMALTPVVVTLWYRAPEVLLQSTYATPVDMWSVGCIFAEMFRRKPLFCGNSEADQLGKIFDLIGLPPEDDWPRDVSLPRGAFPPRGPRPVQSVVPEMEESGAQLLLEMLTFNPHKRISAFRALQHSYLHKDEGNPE
CDK4/CyclinD1 (h), sequence (P24385 whole entry partner): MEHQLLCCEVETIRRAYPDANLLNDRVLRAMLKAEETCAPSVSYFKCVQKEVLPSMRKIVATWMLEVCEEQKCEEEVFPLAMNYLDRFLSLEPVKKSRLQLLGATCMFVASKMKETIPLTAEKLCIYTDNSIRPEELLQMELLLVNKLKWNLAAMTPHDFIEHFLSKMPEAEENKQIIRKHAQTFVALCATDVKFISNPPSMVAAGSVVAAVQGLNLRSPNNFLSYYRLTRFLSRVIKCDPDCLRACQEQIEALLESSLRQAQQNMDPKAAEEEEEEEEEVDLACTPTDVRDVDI
Procedure, shortened: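 Scintillation proximity format: after EDTA/Triton stop containing glutathione SPA beads, 33P incorporation was counted. The reaction ran 60 min at room temperature in Hepes pH 7.5 with NaF, MgCl2, DTT, using 2.5 μg/ml human CDK4/CyclinD1, 40 μg/ml GST-pRb substrate and 2 nM [γ-33P]ATP.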

PLK2 (h) = PLK2 (h) (Homo sapiens, UniProt Q9NYY3); experiment: PLK2 human kinase inhibition, SPA; format: biochemical; settings: read-out: PLK2 pIC50 (converted)
PLK2 (h), sequence (Q9NYY3 whole entry): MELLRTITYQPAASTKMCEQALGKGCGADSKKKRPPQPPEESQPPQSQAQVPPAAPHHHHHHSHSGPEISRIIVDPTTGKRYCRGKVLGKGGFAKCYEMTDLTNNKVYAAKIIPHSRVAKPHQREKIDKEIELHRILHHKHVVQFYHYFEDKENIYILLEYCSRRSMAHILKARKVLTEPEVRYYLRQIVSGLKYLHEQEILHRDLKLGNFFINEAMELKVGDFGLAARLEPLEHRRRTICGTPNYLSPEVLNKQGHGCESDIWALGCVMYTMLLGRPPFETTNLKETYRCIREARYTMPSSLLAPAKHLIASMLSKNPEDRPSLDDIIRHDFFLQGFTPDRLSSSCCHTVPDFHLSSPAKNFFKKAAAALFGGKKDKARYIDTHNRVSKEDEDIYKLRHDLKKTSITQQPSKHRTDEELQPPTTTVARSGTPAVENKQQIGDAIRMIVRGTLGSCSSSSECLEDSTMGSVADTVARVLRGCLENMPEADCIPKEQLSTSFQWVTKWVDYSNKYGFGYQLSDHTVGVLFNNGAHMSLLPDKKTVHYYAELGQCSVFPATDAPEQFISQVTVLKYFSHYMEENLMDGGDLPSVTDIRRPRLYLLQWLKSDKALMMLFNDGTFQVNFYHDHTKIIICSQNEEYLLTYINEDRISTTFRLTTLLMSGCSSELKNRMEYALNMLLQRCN
Procedure, shortened: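 33P incorporation into a biotinylated peptide (2 μM) was captured on streptavidin PVT beads and imaged on Leadseeker. Enzyme at 30 μg/ml, ATP 0.1 μM with 2 nM [γ-33P]ATP, Hepes pH 8.0 with MnCl2 and DTT. Incubation was 20 min at room temperature.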

PLK3 (h) = PLK3 (h) (Homo sapiens, UniProt Q9H4B4); experiment: PLK3 human kinase inhibition, SPA; format: biochemical; settings: read-out: PLK3 pIC50 (converted)
PLK3 (h), sequence (Q9H4B4 whole entry): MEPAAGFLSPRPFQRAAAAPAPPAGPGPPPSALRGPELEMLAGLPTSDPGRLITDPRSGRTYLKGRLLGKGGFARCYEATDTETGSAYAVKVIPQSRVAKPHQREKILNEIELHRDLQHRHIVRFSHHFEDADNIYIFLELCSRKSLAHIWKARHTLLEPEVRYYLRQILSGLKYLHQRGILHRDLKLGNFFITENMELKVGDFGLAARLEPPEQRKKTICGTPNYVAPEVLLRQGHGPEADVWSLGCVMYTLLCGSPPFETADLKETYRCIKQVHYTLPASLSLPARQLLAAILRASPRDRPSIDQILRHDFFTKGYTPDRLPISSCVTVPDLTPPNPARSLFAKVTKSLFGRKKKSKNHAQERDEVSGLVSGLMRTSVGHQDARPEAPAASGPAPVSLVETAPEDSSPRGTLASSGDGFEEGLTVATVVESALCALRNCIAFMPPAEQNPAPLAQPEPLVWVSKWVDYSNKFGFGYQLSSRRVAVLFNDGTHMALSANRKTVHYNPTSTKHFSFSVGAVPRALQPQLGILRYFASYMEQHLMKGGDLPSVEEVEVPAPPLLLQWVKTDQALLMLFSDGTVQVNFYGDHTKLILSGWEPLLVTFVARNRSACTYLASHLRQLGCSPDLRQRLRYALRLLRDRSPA
Procedure, shortened: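 Radiometric scintillation proximity format at pH 8.0 (Hepes, MnCl2, DTT). The 2 μM biotin-peptide substrate is phosphorylated by PLK3 (h) (30 μg/ml) using 0.1 μM ATP traced with 33P, for 20 min at room temperature. EDTA stop; phosphopeptide captured on streptavidin beads and imaged.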

HCT-116 = experiment: Cellular proliferation assay (Alamar blue), HCT-116; format: cell-based; settings: Homo sapiens, 10% FCS, 72 hours with compound, Alamar blue 4 h
Procedure, shortened: (§1)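 Growth inhibition measured after 72 h incubation with compound, following 24 h pre-culture at 37° C, 5% CO2 with 10% FCS. Resazurin-based read-out at 544/590 nm after 4 h (HCT-116), 6 h (U87-MG) or 24 h (A2780, MDA-MB-231); results relative to control.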

H1299 = experiment: Cellular proliferation assay (Alamar blue), H1299; format: cell-based; settings: Homo sapiens, NCI-H1299; 10% FCS; 72 hours with compound; Alamar blue 4 h
Procedure, shortened: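 This proliferation assay on NCI-H1299 cells used an initial 24-hour compound-free incubation after seeding, followed by 72 hours of compound treatment with 10% FCS serum at 37° C. and 5% (v/v) CO2. Viable cells were quantified by a 4 h Alamar blue incubation and fluorescent plate reading at 544 nm/590 nm, and effects were expressed relative to control cells.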

U87-MG = experiment: Cellular proliferation assay (Alamar blue), U87-MG; format: cell-based; settings: Homo sapiens, U-87 MG; 10% FCS; 72 hours with compound; Alamar blue 6 h; read-out: U87-MG (cellular proliferation assay, Table 4) (converted)
Procedure, shortened: as §1

A2780 = experiment: Cellular proliferation assay (Alamar blue), A2780; format: cell-based; settings: Homo sapiens, 10% FCS, 72 hours with compound, Alamar blue 24 h, read-out: A2780 (cellular proliferation assay, Table 4) (converted)
Procedure, shortened: as §1

MDA-MB-231 = experiment: Cellular proliferation assay (Alamar blue), MDA-MB-231; format: cell-based; settings: Homo sapiens, 10% FCS, 72 hours with compound, Alamar blue 24 h, read-out: MDA/MB231 (cellular proliferation assay, Table 4) (converted)
Procedure, shortened: as §1

AuroraB (h), sequence (Q96GD4 whole entry): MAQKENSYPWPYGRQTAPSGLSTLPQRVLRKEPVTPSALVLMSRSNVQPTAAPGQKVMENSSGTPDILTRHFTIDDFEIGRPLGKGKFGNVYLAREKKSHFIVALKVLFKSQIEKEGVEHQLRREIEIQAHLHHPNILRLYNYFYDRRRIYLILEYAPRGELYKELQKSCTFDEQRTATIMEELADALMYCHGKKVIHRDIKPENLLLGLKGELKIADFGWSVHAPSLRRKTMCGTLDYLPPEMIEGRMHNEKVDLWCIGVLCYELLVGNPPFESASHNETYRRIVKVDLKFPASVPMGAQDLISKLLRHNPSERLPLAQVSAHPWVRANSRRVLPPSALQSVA

SMILES	IC50 (AuroraB (h))	IC50 (CDK1/CyclinB (h))	IC50 (CDK4/CyclinD1 (h))	IC50 (PLK2 (h))	IC50 (PLK3 (h))	IC50 (HCT-116)	IC50 (H1299)	IC50 (U87-MG)	IC50 (A2780)	IC50 (MDA-MB-231)
O=C1CN2CCN(CC2)Cc2cc(ccc2N2CCOCC2)Nc2nccc(n2)-c2cccc(c2)OCCN1 [Compound 102]	> 10 µM	2.57 µM	8.13 µM	> 10 µM	> 10 µM	1.29 µM	1.15 µM	3.09 µM	6.46 µM	6.61 µM
COc1ccc2cc1CN(C)CCNC(=O)[C@H](CO)NCc1cc(cc(N3CCOCC3)c1)Nc1nccc-2n1 [Compound 105]	4.79 µM	> 10 µM	> 10 µM	> 3.02 µM	> 10 µM	> 10 µM	> 10 µM	> 10 µM	> 10 µM	> 10 µM
COc1cc2cc(c1)Nc1nccc(n1)-c1ccc(OC)c(c1)CN(C)CCNC(=O)[C@H](CO)NC2 [Compound 107]	2.04 µM	> 10 µM	> 10 µM	> 10 µM	> 10 µM	4.37 µM	> 10 µM	8.91 µM	> 10 µM	> 10 µM
COc1cc2cc(c1)Nc1nccc(n1)-c1ccc(cc1)CN(C)CCNC(=O)[C@H](CO)NC2 [Compound 109]	7.41 µM	> 10 µM	> 10 µM	> 10 µM	> 10 µM	2.69 µM	> 10 µM	5.62 µM	> 10 µM	> 10 µM
CN1CCNC(=O)[C@H](CO)NCc2cccc(c2)Nc2nccc(n2)-c2ccc(cc2)C1 [Compound 114]	7.08 µM	> 10 µM	> 10 µM	~3.02 µM	> 10 µM	> 10 µM	> 10 µM	> 10 µM	> 10 µM	> 10 µM
COc1ccc2cc1CN(C)CCCNC(=O)[C@H](CO)NCc1cccc(c1)Nc1nccc-2n1 [Compound 118]	6.61 µM	> 10 µM	> 10 µM	> 3.02 µM	> 10 µM	> 10 µM	> 10 µM	> 10 µM	> 10 µM	> 10 µM
COc1ccc2cc1CN(C)CCNC(=O)[C@H](CO)NCc1cc(Br)cc(c1)Nc1nccc-2n1 [Compound 119]	> 10 µM	> 10 µM	> 10 µM	> 10 µM	> 10 µM	2.29 µM	> 10 µM	8.71 µM	> 10 µM	> 10 µM
O=C1NCc2cccc(c2)-c2ccnc(n2)Nc2cccc(c2)CN2CCC1CC2 [Compound 124]	> 10 µM	0.372 µM	1.7 µM	> 10 µM	> 10 µM	2.88 µM	> 10 µM	6.03 µM	> 10 µM	> 10 µM
COc1cc2cc(c1)Nc1nccc(n1)-c1ccc(OC)c(c1)CN(C)CCNC(=O)CN1CCN(CC1)C2 [Compound 127]	2 µM	> 10 µM	> 10 µM	> 10 µM	> 10 µM	6.46 µM	> 10 µM	> 10 µM	> 10 µM	> 10 µM
CC(C)Nc1cc2cc(c1)Nc1nccc(n1)-c1ccc(cc1)CN(C)CCCNC(=O)CN1CCN(CC1)C2 [Compound 131]	> 10 µM	> 10 µM	> 10 µM	> 10 µM	> 10 µM	5.25 µM	> 10 µM	> 10 µM	> 10 µM	> 10 µM
COc1cc2cc(c1)Nc1nccc(n1)-c1ccc(cc1)CN(C)CCNC(=O)CN1CCN(CC1)C2 [Compound 132]	> 10 µM	> 10 µM	> 10 µM	> 3.02 µM	> 10 µM	5.89 µM	> 10 µM	8.71 µM	> 10 µM	> 10 µM
CN1CCNC(=O)CN2CCN(CC2)Cc2cccc(c2)Nc2nccc(n2)-c2ccc(cc2)C1 [Compound 134]	> 10 µM	4.79 µM	> 10 µM	2.88 µM	> 10 µM	5.25 µM	> 10 µM	> 10 µM	> 10 µM	> 10 µM
COc1ccc2cc1CN(C)CCNC(=O)CN1CCN(CC1)Cc1cc(NCCc3ccccc3)cc(c1)Nc1nccc-2n1 [Compound 138]	> 10 µM	> 10 µM	> 10 µM	> 3.02 µM	> 10 µM	3.09 µM	10 µM	3.24 µM	5.5 µM	5.89 µM
COc1cc2cc(c1)Nc1nccc(n1)-c1ccc(OC)c(c1)CN(C)CCCNC(=O)CN1CCN(CC1)C2 [Compound 140]	> 10 µM	> 10 µM	> 10 µM	> 10 µM	> 10 µM	1.55 µM	> 10 µM	4.07 µM	> 10 µM	> 10 µM
O=C1NCc2cc(ccc2N2CCOCC2)Nc2nccc(n2)-c2cccc(c2)CCCN2CCC[C@@H]12 [Compound 149]	11 µM	0.00363 µM	0.0724 µM	> 10 µM	> 10 µM	0.117 µM	0.832 µM	0.251 µM	0.245 µM	0.501 µM
CC(C)Nc1cc2cc(c1)Nc1nccc(n1)-c1ccc(cc1)CN(C)CCCNC(=O)[C@@H]1CCCN1C2 [Compound 151]	> 10 µM	> 10 µM	> 10 µM	> 3.02 µM	> 10 µM	3.55 µM	> 10 µM	7.59 µM	> 10 µM	> 10 µM
COc1ccc2cc1CN(C)CCNC(=O)[C@@H]1CCCN1Cc1cc(cc(N3CCOCC3)c1)Nc1nccc-2n1 [Compound 152]	7.94 µM	> 10 µM	> 10 µM	> 10 µM	> 10 µM	> 10 µM	> 10 µM	> 10 µM	> 10 µM	> 10 µM
CN1CCNC(=O)[C@@H]2CCCN2Cc2cc(cc(N3CCOCC3)c2)Nc2nccc(n2)-c2ccc(cc2)C1 [Compound 154]	> 10 µM	> 10 µM	> 10 µM	> 3.02 µM	> 10 µM	> 10 µM	> 10 µM	> 10 µM	> 10 µM	> 10 µM
COc1cc2cc(c1)Nc1nccc(n1)-c1ccc(cc1)CN(C)CCCNC(=O)[C@@H]1CCCN1C2 [Compound 156]	> 10 µM	> 10 µM	> 10 µM	> 3.02 µM	8.51 µM	> 10 µM	> 10 µM	> 10 µM	> 10 µM	> 10 µM
O=C1NCCNCc2ccc(cc2)-c2ccnc(n2)Nc2ccc(N3CCOCC3)c(c2)CN2CCC[C@@H]12 [Compound 157]	9.55 µM	> 10 µM	> 10 µM	> 10 µM	9.55 µM	6.46 µM	5.13 µM	> 10 µM	6.46 µM	> 10 µM
